From patent publication US20260000496A1, “MATERIALS AND METHODS FOR DRUG-INDUCED GINGIVAL OVERGROWTH” (Optimed Technology, Inc., priority 2019, published 2026)

Experiments:
[1] = system: TNF-α in Oral Keratinocytes; test: TNF-α ELISA in oral keratinocytes; assay type: cell-based, human; settings: for amount of secreted TNF-α by ELISA: LPS (10 μg/ml), FA (10 μg/ml), 24 hours, p<0.05
Protocol: (§1) Cell Culture. Normal human oral keratinocytes (NOKSI) and fibroblast (HOF) cells were maintained in Dulbecco […] Eagle's medium (Sigma-Aldrich, St. Louis, MO, USA) supplemented with 10% fetal bovine serum (Atlas Bio-logicals, Fort Collins, CO, USA) and 100 units/mL penicillin and 100 μg/mL streptomycin (LifeTechnologies, Carlsbad, CA, USA). Cells were grown in incubator at 37° C. in a humidified chamber with 5% CO2.
(§2) Drugs treatment in cell culture. The cells were treated alone or with different combination of lipopolysaccharide, cyclosporine, phenytoin, and folic acid. All of them were purchased from Sigma-Aldrich (St. Louis, MO, USA). Each of them were used from 0 μg/ml to 40 μg/ml and the optimum concentration were found 10 μg/ml.
Enzyme linked immunosorbent assay (ELISA). ELISA was conducted with a mouse TNF-α ELISA Kit (PeproTech, USA) and TGF-β Emax ImmunoAssay System (Promega USA) to detect the TNF-α and TGF-β respectively. After normalization of the total cells or tissue protein lysates, 20 μg protein of each sample was used for the detection of TNF-α or TGF-β. ELISA was performed according to the manufacturers' instructions. For TNF-α, 100 ng/100 μl of capture antibody was added to each well of 96 well assay plate and incubated for overnight at room temperature. […] Optical absorbing values were read at 405 and 450 nm and corrected by 650 nm. […] TMB One Solution was added for 15 minutes and the reaction were stopped using 100 μl of 1N hydrochloric acid and the absorbance at 450 nm were recorded on a plate reader. Data were analyzed using excel software. […]
Folic acid reduces TNF-α oral keratinocytes. […] After adhesion, the cells were treated with different concentration of folic acid (2.5 μg/ml-40 μg/ml) and amount of TNF-α was measured by ELISA (p<0.05).
Folic acid reduces TNF-α in Oral Keratinocytes on LPS stimulation. […] The amount of secreted TNF-α was determined by ELISA (p<0.05).
Oral Keratinocytes were seeded and treated with LPS (10 μg/ml), Phe (10 μg/ml), and FA (10 μg/ml) for 24 hours. The amount of secreted TNF-α was determined by ELISA. […]

NF-κB (p-P65) = test: Western blot of phospho-p65 (NF-κB) in oral keratinocytes; assay type: cell-based, human
Protocol: as §1, §2
Western blot analysis. Cells were seeded in 60 mm plates with a density of 5×10^5 cells per plate and washed briefly with Dulbecco's phosphate-buffered saline (Gibco, Waltham, MA, USA). Whole cell lysates were prepared using RIPA lysis buffer containing protease inhibitor cocktail (Sigma-Aldrich). Total protein concentration was determined using the BCA reagent (Pierce, Waltham, MA, USA). 20 μg of total protein were resolved on sodium dodecyl sulfate-polyacrylamide gel electrophoresis and transferred to polyvinylidenedifluoride membrane and immunoblotted. The blots were incubated for 1 h in 1% bovine serum albumin (BSA) (Sigma-Aldrich) to block the non-specific bindings followed by over-night incubation in primary antibodies (MyD88 and pP65 from Cell Signaling Technology, and human LITAF ThermoFisher Sigma) at 4° C. on shaker. Next day, blots were washed for three times (10 min each) in Tris-buffered saline containing 1% Tween20 (TBST) followed by incubation with secondary antibody (Goat anti-rabbit IgG HRP) with 1:10,000 dilution for 1 h. Following washes, bands were visualized using gel documentation Imaging Systems (BioRad). The band intensities were quantified using software ImageJ (NIH, USA) and relative protein levels were normalized by β-actin (Cell Signaling). […]

[2] = system: drug-induced gingival overgrowth (DIGO); test: Mice study #1: pilot DIGO model (suture + cyclosporine), gingival overgrowth; assay type: in vivo, BALB/c mice
Excerpt: Animal Study. […] Therefore, we developed a novel in-vivo anterior ligature model to develop DIGO. We examined two strains of mice, BALB/c and C57BL/6 were used. Sterile ligature (5-0 Silk thread) were placed around the lower central incisors on both sides in mice for 14 days at anaesthetized conditions using ketamine and xylazine. Mice were daily checked for placement of suture. […] The vehicle used to dissolve the drug was 10% ethanol and 10% polyethyleneglycol castor oil (Sigma-Aldrich, St. Louis MO) in sterilized distilled water to a volume of 100%. All mice were scarified at day 14. Euthanasia was performed using carbon dioxide followed by cervical dislocation.
In the combined prevention and treatment group, both modes of folic acid treatments were provided including PO and local gel application. […]
A 3Shape TRIOS® intraoral digital scanner was used to scan all of the dissected tissue and create a 3D STL (STereoLithography) file from each scan. […] The cropped scans were saved and imported into open source software platform 3DSlicer 4.8, where they were volumetrically analyzed using the “Volumes” module. The quantified volume values were statistically analyzed in GraphPad Prism® 7 (GraphPad Software Inc., CA, USA).

Nc1nc2ncc(CNc3ccc(C(=O)N[C@@H](CCC(=O)O)C(=O)O)cc3)nc2c(=O)[nH]1 [folic acid]
amount of secreted TNF-α by ELISA ([1]; CSA (10 μg/ml)): reduces TNF-α
amount of secreted TNF-α by ELISA ([1]; Phe (10 μg/ml)): inhibits Phenytoin-induced TNF-α
amount of TNF-α by ELISA ([1]; folic acid […]-40 μg/ml alone, p<0.05 vs non-treated): reduces TNF-α
p-P65 protein level (NF-κB (p-P65); LPS, CSA, FA each 10 μg/ml, 24 hours): inhibits CSA-induced expression
amount of phospho-p65 (p-P65) protein (NF-κB (p-P65); LPS, Phe, FA each 10 μg/ml, 24 hours): reduces phosphorylation of NF-κB (p-P65)
NF-κB by western blot (NF-κB (p-P65); normal oral keratinocyte cells, FIG. 35): downregulation
gingival overgrowth, 3D volumetric analysis ([2]; prevention sample vs disease sample, overlaid scans): reduced gingival overgrowth
gingival swelling and inflammation, clinical images ([2]; prevention: folic acid p.o. (10 μg/ml drinking water) & local gel, apparent at day 8, vs disease group): less swelling and inflammation
